Key:
Rattus norvegicus [1] = experiment: Reduction of glucagon-induced glucose AUC in CD rat at 5 mg/kg, po preincubated for 2 hrs before glucagon challenge; assay type: functional; parameters: scale not given: the % may be the effect or the level left
Rattus norvegicus [2] = experiment: Reduction of glucagon-induced glucose AUC in CD rat at 2 mg/kg, po preincubated for 2 hrs before glucagon challenge; assay type: functional; parameters: scale not given: the % may be the effect or the level left
[3] = target: T1, Glycogen phosphorylase, liver form (Homo sapiens, UniProt P06737); experiment: Inhibition of human glycogen phosphorylase a in HepG2 cells assessed as inhibition of forskolin-stimulated glycogenolysis; assay type: cell-based
T1 sequence (P06737 whole entry): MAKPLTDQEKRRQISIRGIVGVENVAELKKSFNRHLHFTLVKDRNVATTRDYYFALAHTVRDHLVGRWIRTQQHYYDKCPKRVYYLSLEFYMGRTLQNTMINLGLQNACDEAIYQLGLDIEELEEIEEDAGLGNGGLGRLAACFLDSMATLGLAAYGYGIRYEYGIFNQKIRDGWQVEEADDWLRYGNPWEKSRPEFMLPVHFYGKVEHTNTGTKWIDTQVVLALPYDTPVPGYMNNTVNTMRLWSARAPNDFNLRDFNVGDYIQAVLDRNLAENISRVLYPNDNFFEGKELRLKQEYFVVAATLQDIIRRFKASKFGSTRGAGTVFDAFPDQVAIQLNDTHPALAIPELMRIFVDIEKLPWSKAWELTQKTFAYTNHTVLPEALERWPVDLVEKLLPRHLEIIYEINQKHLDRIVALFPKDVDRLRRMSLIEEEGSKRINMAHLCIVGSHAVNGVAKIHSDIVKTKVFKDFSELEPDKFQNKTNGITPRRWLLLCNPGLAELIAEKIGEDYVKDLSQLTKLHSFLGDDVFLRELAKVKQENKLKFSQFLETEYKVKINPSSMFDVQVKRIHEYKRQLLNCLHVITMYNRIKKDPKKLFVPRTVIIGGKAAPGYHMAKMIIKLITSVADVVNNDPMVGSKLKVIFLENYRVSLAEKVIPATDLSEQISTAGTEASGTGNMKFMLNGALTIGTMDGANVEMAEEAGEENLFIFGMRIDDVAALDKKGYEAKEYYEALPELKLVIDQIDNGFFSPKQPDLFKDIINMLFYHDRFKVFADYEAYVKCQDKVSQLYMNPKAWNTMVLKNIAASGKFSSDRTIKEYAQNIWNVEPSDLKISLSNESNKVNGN

[4] = target: T1, Glycogen phosphorylase, liver form; experiment: Inhibition of human liver glycogen phosphorylase a by coupled kinetic fluorescent intensity assay
[5] = Bioavailability in rat at 1 mg/kg, iv and 5 mg/kg, po; assay type: ADME, organism-based; details: in vivo
[6] = Half life in rat at 1 mg/kg, iv and 5 mg/kg, po; assay type: ADME, organism-based; details: in vivo
[7] = Cmax in rat at 5 mg/kg, po; assay type: ADME, organism-based; parameters: dose 5 mg/kg, route oral; details: in vivo
Mus musculus = experiment: Antidiabetic effect in ob/ob B6.V-lep[ob]/J mouse assessed as decrease in blood glucose level at 15 mg/kg, po after 3 hrs; assay type: functional
[8] = Clearance in rat at 1 mg/kg, iv and 5 mg/kg, po; assay type: ADME, organism-based; details: in vivo

`Cc1cc(C)c(NC(=O)Nc2cc(-c3cccc(F)c3)ccc2C(=O)N[C@H](C(=O)O)[C@@H](C)OC(C)(C)C)c(C)c1` showed an Activity (Rattus norvegicus [1]) of 32%, an Activity (Rattus norvegicus [2]) of 10% and an IC50 [3] of 104 nM. For the same compound, the IC50 [4] was 15 nM.
With `Cc1cc(CC2CC2)cc(C)c1NC(=O)Nc1cc(-c2cccc(F)c2)ccc1C(=O)N[C@H](C(=O)O)[C@@H](C)OC(C)(C)C` the bioavailability [5] was 27%, the Activity (Rattus norvegicus [1]) was 65% and the Activity (Rattus norvegicus [2]) was 62%. The IC50 [3] was 145 nM, the half-life [6] was 2.3 h and the Cmax [7] was 536 ng/mL. The Activity (Mus musculus) was 103 mg/dL and the clearance [8] was 15 mL/min/kg.
`CCCc1cc(C)c(NC(=O)Nc2cc(-c3cccc(F)c3)ccc2C(=O)N[C@H](C(=O)O)[C@@H](C)OC(C)(C)C)c(C)c1` gave an IC50 [3] of 156 nM and an IC50 [4] of 4 nM.
In the case of `Cc1cc(C)c(NC(=O)Nc2cc(F)ccc2C(=O)N[C@H](C(=O)O)[C@@H](C)OC(C)(C)C)c(C)c1`, the IC50 [3] is reported as 1820 nM and the IC50 [4] is reported as 506 nM.
In the case of `CCCc1cc(C)c(NC(=O)Nc2cc(F)ccc2C(=O)N[C@H](C(=O)O)[C@@H](C)OC(C)(C)C)c(C)c1`, the IC50 [3] is reported as 147 nM and the IC50 [4] is reported as 10 nM.
Work on `Cc1cc(CC2CC2)cc(C)c1NC(=O)Nc1cc(F)ccc1C(=O)N[C@H](C(=O)O)C1CCCCC1` yielded an IC50 [3] of 384 nM and an IC50 [4] of 13 nM.
With `CCc1cc(C)c(NC(=O)Nc2cc(F)ccc2C(=O)N[C@H](C(=O)O)C2CCCCC2)c(C)c1` the IC50 [3] was 513 nM and the IC50 [4] was 87 nM.
`Cc1cc(C)c(NC(=O)Nc2cc(F)ccc2C(=O)N[C@H](C(=O)O)C2CCCCC2)c(C)c1` gave an IC50 [3] of 1030 nM and an IC50 [4] of 143 nM.
With `COc1ccc(-c2ccc(C(=O)N[C@H](C(=O)O)[C@@H](C)OC(C)(C)C)c(NC(=O)Nc3c(C)cc(C)cc3C)c2)cc1` the IC50 [3] was 34 nM and the IC50 [4] was 3 nM.
With `Cc1cc(C)c(NC(=O)Nc2ccccc2C(=O)N[C@H](C(=O)O)[C@@H](C)OC(C)(C)C)c(C)c1` the IC50 [3] was 1680 nM and the IC50 [4] was 542 nM.
For `Cc1cc(C)c(NC(=O)Nc2cc(-c3ccc(F)cc3)ccc2C(=O)N[C@H](C(=O)O)[C@@H](C)OC(C)(C)C)c(C)c1`, the IC50 [3] was 88 nM and the IC50 [4] was 7 nM.
With `CCCCc1cc(C)c(NC(=O)Nc2cc(F)ccc2C(=O)N[C@H](C(=O)O)C2CCCCC2)c(C)c1` the IC50 [3] was 716 nM and the IC50 [4] was 49 nM.
`Cc1cccc(C)c1NC(=O)Nc1cc(F)ccc1C(=O)N[C@H](C(=O)O)C1CCCCC1` gave an IC50 [3] of 8260 nM and an IC50 [4] of 1070 nM.
Work on `Cc1cc(C)c(NC(=O)Nc2cc3ccccc3cc2C(=O)N[C@H](C(=O)O)[C@@H](C)OC(C)(C)C)c(C)c1` yielded an Activity (Rattus norvegicus [1]) of 25%.
For `COc1ccccc1-c1ccc(C(=O)N[C@H](C(=O)O)[C@@H](C)OC(C)(C)C)c(NC(=O)Nc2c(C)cc(C)cc2C)c1`, the IC50 [3] was 353 nM and the IC50 [4] was 28 nM.
In the case of `Cc1cc(CC2CC2)cc(C)c1NC(=O)Nc1cc(F)ccc1C(=O)N[C@H](C(=O)O)[C@@H](C)OC(C)(C)C`, the Activity (Rattus norvegicus [1]) is reported as 36%, the Activity (Rattus norvegicus [2]) is reported as 22% and the IC50 [3] is reported as 133 nM. For the same compound, the IC50 [4] was 4 nM.
For `CCCc1cc(C)c(NC(=O)Nc2cc(-c3ccc(OC)cc3)ccc2C(=O)N[C@H](C(=O)O)[C@@H](C)OC(C)(C)C)c(C)c1`, the IC50 [3] was 135 nM.
In the case of `Cc1cc(C)c(NC(=O)Nc2cc(-c3ccc(F)c(F)c3)ccc2C(=O)N[C@H](C(=O)O)[C@@H](C)OC(C)(C)C)c(C)c1`, the IC50 [3] is reported as 171 nM and the IC50 [4] is reported as 13 nM.
Compound `CCCc1cc(C)c(NC(=O)Nc2cc(-c3ccc(F)c(F)c3)ccc2C(=O)N[C@H](C(=O)O)[C@@H](C)OC(C)(C)C)c(C)c1` has an IC50 [3] of 181 nM and an IC50 [4] of 7 nM.
In the case of `CCCc1cc(C)c(NC(=O)Nc2cc(F)ccc2C(=O)N[C@H](C(=O)O)C2CCCCC2)c(C)c1`, the IC50 [3] is reported as 229 nM and the IC50 [4] is reported as 19 nM.
Work on `COc1cccc(-c2ccc(C(=O)N[C@H](C(=O)O)[C@@H](C)OC(C)(C)C)c(NC(=O)Nc3c(C)cc(C)cc3C)c2)c1` yielded an IC50 [3] of 109 nM and an IC50 [4] of 8 nM.
In the case of `Cc1cc(C)c(NC(=O)Nc2cc(-c3ccccc3)ccc2C(=O)N[C@H](C(=O)O)[C@@H](C)OC(C)(C)C)c(C)c1`, the IC50 [3] is reported as 126 nM and the IC50 [4] is reported as 10 nM.

Reference: ChEMBL document CHEMBL1136849, “Anthranilimide based glycogen phosphorylase inhibitors for the treatment of type 2 diabetes. Part 3: X-ray crystallographic characterization, core and urea optimization and in vivo efficacy” (Bioorg Med Chem Lett, 2009)
